US20110097274A1, “Carbon-11 and fluorine-18 labeled radioligands for positron emission tomography (PET) imaging for the brain serotonin transporters” (priority 2002, published 2011)
Where “and” joins values, the source holds several entries; their conditions need not be identical. Equal entries are not always repeated. Where two headings read alike, the source gives them in different places.

Legend:
[1] = Baboon PET study: plasma analysis / input function of parent compound; type: in vivo; conditions: baboons; for Clearance of parent compound / Vbol (initial distribution volume of parent compound): i.v.; for Clearance of parent compound / Vbol (initial distribution volume of parent compound) / Clearance: mean ± SD of four experiments; for Clearance: male, monkey, arterial plasma, iv
Method: PET imaging protocol: PET experiments (n=20) were performed at Columbia University. Two adult male baboons (baboon A and B) were studied twice with each of the 5 radioligands (4 experiments per radioligand). All experiments took place within a 9-month period. Baboons A and B were 31 kg and 21 kg in weight at the beginning of the experimental period and 28 and 22 kg at the end, respectively.
Experiments were performed according to protocols approved by the Columbia-Presbyterian Medical Center Institutional Animal Care and Use Committee. […] Vital signs were monitored every 10 minutes and the temperature was kept constant at 37° C. with heated water blankets. An i.v. perfusion line was used for hydration and injection of radioligands and nonradioactive drugs. A catheter was inserted in a femoral artery for arterial blood sampling. Head was positioned at the center of the field of view as defined by imbedded laser lines. PET imaging was performed with the ECAT EXACT HR+PET scanner (Siemens/CTI, Knoxville, Tenn.). […] A 15 minute transmission scan was obtained prior to radioligand injection for attenuation correction. Activity was injected i.v. over 30 seconds.
Input function measurements: Arterial samples were collected every 5 seconds with an automated system for the first two minutes and manually thereafter at various intervals. A total of 28 samples were collected.
Selected plasma samples (n=6 per study, collected at 2, 4, 12, 30, 60 and 90 minutes after radioligand administration) were further processed by extraction with methanol (MeOH) followed by HPLC analysis to measure the fraction of plasma activity representing unmetabolized parent compound. The parent fraction was measured as follows: plasma (0.5 mL) was pipetted into a centrifuge tube containing MeOH (1.0 mL). […] The liquid phase was separated from the precipitate. Activity in 0.1 mL of the liquid phase was counted and the rest was injected onto the HPLC. The HPLC eluate was fraction-collected in 6 counting tubes (4.0 mL each). The HPLC system consisted of a Waters 510 isocratic pump, a Rheodyne injector equipped with a 2 mL sample loop, a C18 analytical column (Phenomenex ODS-prep, 10 μm, 4.6×250 mm), a Bioscan Flow Cell gamma detector (Bioscan, Washington, D.C.), and a fraction collector. The column was eluted with a mixture of acetonitrile and aqueous 0.1 M ammonium formate (proportion depending on the tracer being analyzed) at a flow rate of 2 mL/minute. Before plasma sample analysis, the retention time of the parent tracer was established by injection of a few μCi of the tracer and detection of the peak using the Bioscan gamma detector.
The parent fraction was calculated as the ratio of activity in the fractions containing the parent to that of the total activity collected. A biexponential function was fitted to the six measured parent fractions, and used to interpolate values between and after the measurements. […] The input function was then calculated as the product of total counts and interpolated fraction parent at each time point. The measured input function values were fitted to a sum of three exponentials, and the fitted values were used as input for the kinetic analyses. […] The initial distribution volume (Vbol, L) was calculated as the ratio of injected dose to peak plasma concentration.

[2] = molecular target: T1, SERT (Homo sapiens, UniProt P31645); conditions: cited from earlier work
T1 construct: consistent with values previously measured in six healthy humans (Parsey et al., 2000); host or cells: living human brain (PET, values quoted from Parsey et al. 2000, Ginovart et al. 2001)

[3] = humans, cited from earlier work; for Parent fraction in plasma at 30 minutes: literature
[4] = Biodistribution of labeled radioligands in male Sprague-Dawley rats; type: in vivo; conditions: mean ± SD, n = 3
How it was run: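 C-11-labeled compounds given to male Sprague-Dawley rats; cerebellum, hippocampus, striatum, frontal cortex, thalamus, hypothalamus, blood and tail excised, weighed and gamma-counted. Decay- and tail-corrected activity expressed as % injected dose against C-11 standards from the injection solution, and as % ID/g from tissue weights.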

[5] = Experiment 5: plasma clearance of ^11C and ^18F labeled AFM, AFA, AFE in one baboon; type: in vivo; conditions: one adult male baboon, n = 1 to 4 scans
Method: General scanning methods were as described in Huang et al. (2002). Arterial input function was measured and corrected for metabolites.

[6] = tested on: SERT; experiment: Experiment 5: PET brain imaging of ^11C and ^18F labeled AFM, AFA, AFE in one baboon; type: in vivo; conditions: one adult male baboon, n = 1 to 4 scans, two-compartment model
How it was run: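 Baboon PET with metabolite-corrected arterial input function, fitted to a two-compartment model to give regional VT (mL/g). Cerebellum VT was taken as nonspecific distribution. V3″ = ROI VT / cerebellum VT − 1.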

[7] = tested on: SERT; conditions: same baboon, one tissue compartment model
Method: The animal was then injected with [^18F]AFM (2.60 mCi, 425 Ci/mmol, 1.51 μg) and scanned for 90 minutes. Analysis of the input function and brain uptake was performed as described in the previous section. […] Arterial activity was corrected for parent fraction to form the input function.
Data were analyzed with a one tissue compartment model.

[8] = Experiment 4: plasma analysis, [^11C]AFM and [^18F]AFM in the same baboon
Method: The animal was then injected with [^18F]AFM (2.60 mCi, 425 Ci/mmol, 1.51 μg) and scanned for 90 minutes. […] Arterial activity was corrected for parent fraction to form the input function.

[9] = molecular target: SERT; conditions: literature; cited from earlier work

T1 sequence (P31645 whole entry): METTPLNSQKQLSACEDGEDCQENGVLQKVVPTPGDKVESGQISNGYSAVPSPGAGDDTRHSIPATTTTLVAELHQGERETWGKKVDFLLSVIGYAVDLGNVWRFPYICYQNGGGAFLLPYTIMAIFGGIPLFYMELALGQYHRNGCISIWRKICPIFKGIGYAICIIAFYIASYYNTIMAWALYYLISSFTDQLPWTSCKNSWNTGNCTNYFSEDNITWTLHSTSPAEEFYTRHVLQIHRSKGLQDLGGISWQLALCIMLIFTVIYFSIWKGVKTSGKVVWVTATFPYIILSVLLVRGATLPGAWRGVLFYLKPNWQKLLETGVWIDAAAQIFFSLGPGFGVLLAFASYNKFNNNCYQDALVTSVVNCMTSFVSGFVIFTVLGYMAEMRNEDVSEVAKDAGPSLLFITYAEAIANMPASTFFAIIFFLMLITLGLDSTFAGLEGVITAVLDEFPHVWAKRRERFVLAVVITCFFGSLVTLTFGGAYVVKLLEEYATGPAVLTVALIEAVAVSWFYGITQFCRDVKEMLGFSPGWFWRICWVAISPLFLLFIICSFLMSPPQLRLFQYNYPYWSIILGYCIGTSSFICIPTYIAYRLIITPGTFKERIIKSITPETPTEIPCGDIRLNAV

In the case of `[11CH3]Sc1ccc([C@H]2CN3CCC[C@H]3c3ccccc32)cc1` [[^11C]McN 5652], the “Parent fraction in plasma at 30 minutes” value [1] is reported as 28±13%, the “Clearance of parent compound” value [1] is reported as 58 ± 13 L/h and the “Vbol (initial distribution volume of parent compound)” value (“Vbol” for short) [1] is reported as 5.9 ± 1.8 L. The “V3″ medial prefrontal cortex” value ([2]; humans (Parsey et al., 2000)) was 0.08, the “V3″ cingulate cortex” value ([2]; humans, literature) was 0.21 and the “V3″ hippocampus” value ([2]; humans, literature) was 0.49. The “V3″ midbrain” value ([2]; humans, literature) was 1.63, the “V3″ occipital cortex” value ([2]; humans, literature) was 0.17 and the “V3″ striatum” value ([2]; humans, literature) was 1.03. For the same molecule, the “V3″ temporal cortex” value ([2]; humans, literature) was 0.22, the “V3″ thalamus” value ([2]; humans, literature) was 0.92 and the “VT CER (cerebellum distribution volume)” value ([2]; humans, literature) was 17.8 ± 1.9 mL/g and 11.9 ± 3.3 mL/g. For the same molecule, the “Data acquisition required for time-independent / stable VT or BP estimates” value ([2]; humans, regions with high SERT density such as the midbrain (Parsey et al., 2000)) was “at least 120 minutes” and the “Parent fraction in plasma at 30 minutes” value [3] was 59±10%.
In the case of `CN([11CH3])Cc1ccccc1Sc1ccc(CF)cc1N` [[^11C]AFM, [^11C]2-[2-(Dimethylaminomethyl)phenylthio]-5-fluoromethylphenylamine], the “% ID/g Blood” value ([4]; 10 min post-injection) is reported as 0.37 ± 0.28 % ID/g, the “% ID/g Cerebellum” value ([4]; 10 min post-injection) is reported as 0.40 ± 0.06 % ID/g and the “% ID/g Frontal Ctx.” value ([4]; 10 min post-injection) is reported as 0.99 ± 0.25 % ID/g. The “% ID/g Hippocamp.” value ([4]; 10 min post-injection) was 0.59 ± 0.14 % ID/g, the “% ID/g Hypothal.” value ([4]; 10 min post-injection) was 0.75 ± 0.19 % ID/g and the “% ID/g Striatum” value ([4]; 10 min post-injection) was 0.72 ± 0.17 % ID/g. The “% ID/g Thalamus” value ([4]; 10 min post-injection) was 0.79 ± 0.15 % ID/g, the “% ID/g Blood” value ([4]; 30 min post-injection) was 0.28 ± 0.01 % ID/g and the “% ID/g Cerebellum” value ([4]; 30 min post-injection) was 0.41 ± 0.11 % ID/g. The “% ID/g Frontal Ctx.” value ([4]; 30 min post-injection) was 1.31 ± 0.28 % ID/g, the “% ID/g Hippocamp.” value ([4]; 30 min post-injection) was 0.95 ± 0.29 % ID/g and the “% ID/g Hypothal.” value ([4]; 30 min post-injection) was 1.37 ± 0.48 % ID/g. The “% ID/g Striatum” value ([4]; 30 min post-injection) was 1.12 ± 0.21 % ID/g, the “% ID/g Thalamus” value ([4]; 30 min post-injection) was 1.18 ± 0.30 % ID/g and the “% ID/g Blood” value ([4]; 60 min post-injection) was 0.19 ± 0.03 % ID/g. For the same molecule, the “% ID/g Cerebellum” value ([4]; 60 min post-injection) was 0.21 ± 0.04 % ID/g, the “% ID/g Frontal Ctx.” value ([4]; 60 min post-injection) was 1.37 ± 0.10 % ID/g and the “% ID/g Hippocamp.” value ([4]; 60 min post-injection) was 0.84 ± 0.10 % ID/g. The “% ID/g Hypothal.” value ([4]; 60 min post-injection) was 1.27 ± 0.16 % ID/g, the “% ID/g Striatum” value ([4]; 60 min post-injection) was 1.02 ± 0.15 % ID/g and the “% ID/g Thalamus” value ([4]; 60 min post-injection) was 1.29 ± 0.22 % ID/g. The “Clearance of parent compound” value [1] was 90 ± 46 L/h, the “Vbol” value [1] was 17.6 ± 1.3 L and the Clearance [5] was 47 ± 11 L/h. For the same molecule, the “Cerebellum V (nonspecific distribution volume)” value [6] was 32 ± 6 mL/g, the “Thalamus V3″” value [7] was 2.26 and the “Clearance of the parent compound” value [8] was 31 L/h. The “Percent plasma activity corresponding to the parent compound” value (shortened to “Percent plasma activity corresponding”) ([8]; 2 minutes) was 75.6%, the “Percent plasma activity corresponding” value ([8]; 4 minutes) was 55.4% and the “Percent plasma activity corresponding” value ([8]; 12 minutes) was 21.4%. The “Percent plasma activity corresponding” value ([8]; 30 minutes) was 9.4%, the “Percent plasma activity corresponding” value ([8]; 60 minutes) was 6.4% and the “Percent plasma activity corresponding” value ([8]; 90 minutes) was 6.7%.
With `CN(C)Cc1ccccc1Sc1ccc(I)cc1N` [[^11C]ADAM] the “Vbol” value [1] was 8.1 ± 3.1 L and the Clearance [1] was 1120 mL/min.
With `CN(C)Cc1ccccc1Sc1ccc(C#N)cc1N` [[^11C]DASB] the “Parent fraction in plasma at 30 minutes” value [1] was 20±1%, the “Vbol” value [1] was 12.6 ± 2.2 L and the Clearance [1] was 1400 mL/min. The “Data acquisition required to derive stable VT values in all regions” value ([2]; humans (Ginovart et al., 2001)) was “no more than 80 minutes”, the “V3″ occipital cortex” value ([2]; humans, literature) was 0.51±0.09 and the “VT CER (cerebellum distribution volume)” value ([2]; humans, literature) was 11.8 ± 1.5 mL/g. The “Parent fraction in plasma at 30 minutes” value [3] was 40±7%, the “f1 (plasma free fraction)” value ([3]; n=5 (Ginovart et al., 2001)) was 11.0±1.2% and the Kd [9] was 1.1 nM.
In the case of `CN(C)Cc1ccccc1Sc1ccc(Br)cc1N` [[^11C]DAPA], the “Vbol” value [1] is reported as 8.5 ± 1.8 L and the Clearance [1] is reported as 967 mL/min.
